From publication PMC6369734, “Spy vs. spy: selecting the best reporter for ^19F NMR competition experiments” (Chemical Communications (Cambridge, England), 2019)
Read-outs that look alike come from different tables or passages of the source. One block for each molecule: values may come before it.

How the values were obtained:
[1] = molecular target: T1, VHL (VBC complex: pVHL54-213, eloB1-104, eloC17-112) (Homo sapiens, UniProt P40337); assay: Surface plasmon resonance (SPR) steady-state binding to immobilised biotinylated AviVBC
T1 construct: equimolar complex of pVHL54-213, eloB1-104 and; made in house; host or cells: E. coli
Method: The KD of each compound to VHL was determined by surface plasmon resonance (SPR) experiments.
3. Protein expression, purification and biotinylation
The VHL E3 ligase is a multi-protein complex composed of five proteins: VHL protein (pVHL), elongin B (eloB), elongin C (eloC), Cullin-2 (Cul2) and Ring-box protein 1 (Rbx1).[3] Since the compounds developed in this work bind solely to the VHL protein, the VBC complex (equimolar complex of pVHL54-213, eloB1-104 and eloC17-112) was used in all experiments, as it can be readily expressed in E. coli with high yields,[4] while the full E3 ligase would require baculovirus-insect cells expression system.[5] The expression and purification of VBC was performed as described previously by our group[2] and employed directly in all NMR experiments.
For the surface plasmon resonance (SPR) experiments, a VBC complex containing an AviTagTM in the N-terminus of eloB (AviVBC) was purified using the same procedure described for VBC. The modified eloB/eloC expression plasmid was previously developed in-house by Dr. Michael Roy and kindly shared. The AviVBC complex was site-specifically biotinylated in the AviTag using the GST-BirA method previously described by […]
4. Surface plasmon resonance experiments
The SPR experiments were performed with a Biacore T200 instrument (GE Healthcare). All measurements were performed at 20 °C with buffer containing 10 mM HEPES, pH 7.5, 150 mM NaCl, 1 mM TCEP, 0.005% (v/v) Tween® 20 and 2% (v/v) dimethyl sulfoxide (DMSO). Biotinylated AviVBC (~0.5 μM) was immobilised at 22 °C onto a Series S sensor chip SA (GE Heathcare) to levels of approximately 3500-4000 response units […]
Solutions of each spy molecule were prepared in buffer at concentrations based on previous structure-activity relationship studies of VHL ligands (K D expected in the nanomolar range for structures like spy molecules 16 and 22, or in the milimolar range for spy molecules similar to 1 and 9). From this first screen, the binding affinities were roughly estimated using the Biacore T200 evaluation software (GE Healthcare), then measurements were repeated using concentrations above and below the KD obtained in the first round to generate better curves for fitting the data accurately. Contact and dissociation times varied across the different compounds tested, but in […]
dissociated from the surface in less than sixty seconds.
Data analysis was performed using the steady state responses of the double-referenced sensorgrams (raw data subtracted from blank and reference surface injections) obtained for each concentration tested. These responses were plotted against the respective concentrations and the data fitted to a 1: 1 binding model u sing the Biacore T200 evaluation software and the following equation: […]
Where Req is the steady-state response at a given concentration C. Deviations in Req were corrected by adding an ‘offset’ term to the equation. KD is the dissociation constant to be determined and RMAX is the maximum response expected for a given compound according to the equation below:
Where n is the stoichiometry of the interaction ( in this case, n = 1) and RProtein is the immobilization level of protein. MWCompound and MWProtein are the molecular weights of compound and protein, respectively. Sensorgrams and fitting parameters for all spy molecules can be found in section 7.

[2] = molecular target: T2, VHL (VBC complex) (Homo sapiens, UniProt P40337); assay: 19F CPMG NMR transverse relaxation rate (R2) and R2 contrast (C2) of spy molecule with and without protein; format: binding
T2 construct: equimolar complex of pVHL54-213, eloB1-104 and; made in house; host or cells: E. coli
Source text: Due to the large CSA of fluorine and the significant differences in the fluorine isotropic chemical shift (δF) between the free and bound states, the transverse relaxation rate (R2) is a well-established sensitive parameter to detect ligand binding.[4] Therefore, fluorine NMR experiments including a Carr–Purcell–Meiboom–Gill (CPMG) spin-echo filter[10] before acquisition were employed to monitor ligand binding to VHL by measuring peak intensity, as changes in other NMR parameters, such as chemical shift and peak width, were not as significant. The R2 values of the CF3 peak of each compound in the absence and in the presence of protein were determined by performing multiple ^19F CPMG experiments varying the CPMG filter (Fig. 2a). To quantify the shift in R2 upon binding, the R2 contrast (C2)[11] was determined. Ideally, a good spy molecule should have a large increase in R2 (fast relaxation) when protein is present, resulting in a large assay window for the competition experiments (Fig. 2b).
5. Measurement of the transverse relaxation rates by 19F CPMG NMR
All the NMR experiments were performed in a 500 MHz Bruker AVANCE N MR spectrometer equipped with a CPQCI -F cryoprobe. To measure the transverse relaxation rates (R 2), a solution of each spy molecule at 100 μM was prepared in 50 mM potassium phosphate monobasic (KH2PO4), pH 7.5, 100 mM NaCl, 1 mM TCEP, 2% (v/v) DMSO, 20% D2O and 10 µM trifluoroacetic acid (TFA). For each solution, 19F CPMG experiments […]
Due to the fast relaxation of molecules 21 and 22, these experiments were repeated with shorter CPMG filters (50, 100, 150, 200, 300, 400, 700 and 1000 ms). The fluorine peaks were integrated and plotted against the resp ective CPMG filters. The R 2 relaxation rates were obtained from fitting the data as a n exponential decay (GraphPad Prism 6) according to the equation below: [7]
Where I(t) is the 19F signal intensity or integral, t is the total CPMG filter in seconds, I(0) is the signal intensity when t = 0. To obtain the R2 upon addition of prot ein, all the experiments above were repeated in presence of VBC at 1 µM. Experiments were performed as triplicates and the R 2 contrasts (C2) were obtained according to the equation below: [8]
Where R2Free is the R2 obtained for the spy molecule free in solution and R2Observed is the R2 obtained with the spy molecule in presence of VBC. The raw data, fitting, R2 and C2 values for each spy molecule can be found in section 8.1. For the R2 measurements using molecule 19 at varied concentrations of spy molecule and protein, see section 8.2 . For the R2 measurements using spy molecules 6 and 11 (used to generate figures S 2, S3 and S4) see

[3] = SPR steady-state fit, supplement section 7, read-out: KD (Biacore T200 fit)
[4] = SPR, 20 °C, steady-state 1:1 fit, footnote b values fitted because RMAX was not reached experimentally, read-out: K D, SPR
[5] = Spy molecule 100 μM + VBC 1 μM, supplement 8.1
[6] = Spy molecule 100 μM, no protein
[7] = Spy molecule 19 at 10 µM, VBC 0.125 μM
[8] = Spy molecule 19 at 10 µM, VBC 0.250 μM
[9] = Spy molecule 19 at 10 µM, VBC 0.500 μM
[10] = Spy molecule 19 at 10 µM, VBC 1.000 μM
[11] = Spy molecule 19 at 25 µM, VBC 0.125 μM
[12] = Spy molecule 19 at 25 µM, VBC 0.250 μM
[13] = Spy molecule 19 at 25 µM, VBC 0.500 μM
[14] = Spy molecule 19 at 25 µM, VBC 1.000 μM
[15] = Spy molecule 19 at 50 µM, VBC 0.125 μM
[16] = Spy molecule 19 at 50 µM, VBC 0.250 μM
[17] = Spy molecule 19 at 50 µM, VBC 0.500 μM
[18] = Spy molecule 19 at 50 µM, VBC 1.000 μM
[19] = spy concentration not given, VBC 0.125 μM
[20] = spy concentration not given, VBC 0.250 μM
[21] = spy concentration not given, VBC 0.500 μM
[22] = spy concentration not given, VBC 1.000 μM

T1 sequence (P40337 54-213): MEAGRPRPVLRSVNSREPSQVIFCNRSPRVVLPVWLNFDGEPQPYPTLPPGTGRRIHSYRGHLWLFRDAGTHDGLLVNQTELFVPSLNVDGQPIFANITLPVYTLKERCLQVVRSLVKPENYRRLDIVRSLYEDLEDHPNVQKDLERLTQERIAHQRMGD
T1 sequence (Q15370 1-104 partner limits assumed): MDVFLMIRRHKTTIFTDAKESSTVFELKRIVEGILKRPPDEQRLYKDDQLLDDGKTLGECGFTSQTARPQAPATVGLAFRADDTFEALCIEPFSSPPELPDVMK
T1 sequence (Q15369 17-112 partner limits assumed): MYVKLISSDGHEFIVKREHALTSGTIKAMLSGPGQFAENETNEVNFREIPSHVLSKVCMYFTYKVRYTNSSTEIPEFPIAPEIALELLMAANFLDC
T2 sequence (P40337 54-213): as the sequence (P40337 54-213) above
T2 sequence (Q15370 1-104 partner limits assumed): as the sequence (Q15370 1-104 partner limits assumed) above
T2 sequence (Q15369 17-112 partner limits assumed): as the sequence (Q15369 17-112 partner limits assumed) above

Kd [1, 3]: 407 µM
Kd [1, 4]: 407 ± 5 µM
R2 ([2]; Spy molecule 100 μM + VBC 1 μM): 1.847 ± 0.033 s⁻¹
R2 contrast – C2 [2, 5]: 28.2 ± 2.3%
R2 [2, 6]: 1.326 ± 0.025 s⁻¹
SMILES: CC(C)(C)CC(=O)N1C[C@H](O)C[C@H]1C(=O)NCc1ccc(Br)c(C(F)(F)F)c1 [Compound 3]

Kd [1, 4]: 1350 ± 94 µM
R2 ([2]; Spy molecule 100 μM + VBC 1 μM): 2.596 ± 0.046 s⁻¹
R2 contrast – C2 [2, 5]: 51.9 ± 2.1%
R2 [2, 6]: 1.249 ± 0.018 s⁻¹
SMILES: CC(=O)N1C[C@H](O)C[C@H]1C(=O)NCc1ccc(Br)cc1C(F)(F)F [Compound 10]

binding kinetics / dissociation rates by SPR ([1]; SPR): too high to be determined accurately
Kd [1, 3]: 1.14 µM
Kd [1, 4]: 1.14 ± 0.12 µM
R2 ([2]; Spy molecule 100 μM + VBC 1 μM): 1.637 ± 0.028 s⁻¹
R2 contrast – C2 [2, 5]: 7.6 ± 2.4%
R2 [2, 6]: 1.512 ± 0.029 s⁻¹
SMILES: CC(=O)NC(C(=O)N1CC(O)CC1C(=O)NCc1ccc(Br)cc1C(F)(F)F)C(C)(C)C (centres unmarked) [Compound 12]

Kd [1, 3]: 145 µM
Kd [1, 4]: 145 ± 29 µM
R2 ([2]; Spy molecule 100 μM + VBC 1 μM): 5.096 ± 0.186 s⁻¹
R2 contrast – C2 [2, 5]: 70.1 ± 4.5%
R2 [2, 6]: 1.526 ± 0.041 s⁻¹
R2 ([2]; Spy molecule 19 at 10 µM, VBC 0.000 μM): 1.464 ± 0.096 s⁻¹
R2 [2, 7]: 2.346 ± 0.193 s⁻¹
R2 contrast – C2 [2, 7]: 35.0 ± 8.9%
R2 [2, 8]: 2.807 ± 0.131 s⁻¹
R2 contrast – C2 [2, 8]: 45.6 ± 5.3%
R2 [2, 9]: 4.288 ± 0.304 s⁻¹
R2 contrast – C2 [2, 9]: 64.4 ± 8.5%
R2 [2, 10]: 7.974 ± 0.727 s⁻¹
R2 contrast – C2 [2, 10]: 80.9 ± 11.7%
R2 ([2]; Spy molecule 19 at 25 µM, VBC 0.000 μM): 1.582 ± 0.049 s⁻¹
R2 [2, 11]: 2.107 ± 0.095 s⁻¹
R2 contrast – C2 [2, 11]: 27.6 ± 5.1%
R2 [2, 12]: 2.811 ± 0.156 s⁻¹
R2 contrast – C2 [2, 12]: 45.7 ± 6.3%
R2 [2, 13]: 4.008 ± 0.200 s⁻¹
R2 contrast – C2 [2, 13]: 61.9 ± 5.9%
R2 [2, 14]: 6.934 ± 0.348 s⁻¹
R2 contrast – C2 [2, 14]: 78.0 ± 6.4%
R2 ([2]; Spy molecule 19 at 50 µM, VBC 0.000 μM): 1.475 ± 0.059 s⁻¹
R2 [2, 15]: 1.969 ± 0.071 s⁻¹
R2 contrast – C2 [2, 15]: 22.5 ± 4.2%
R2 [2, 16]: 2.316 ± 0.168 s⁻¹
R2 contrast – C2 [2, 16]: 34.1 ± 7.9%
R2 [2, 17]: 3.857 ± 0.121 s⁻¹
R2 contrast – C2 [2, 17]: 60.4 ± 3.8%
R2 [2, 18]: 6.424 ± 0.262 s⁻¹
R2 contrast – C2 [2, 18]: 76.2 ± 5.2%
R2 ([2]; spy concentration not given, VBC 0.000 μM): 1.392 ± 0.101 s⁻¹
R2 [2, 19]: 2.337 ± 0.335 s⁻¹
R2 contrast – C2 [2, 19]: 34.7 ± 15.3%
R2 [2, 20]: 3.678 ± 0.489 s⁻¹
R2 contrast – C2 [2, 20]: 58.5 ± 15.5%
R2 [2, 21]: 4.255 ± 0.566 s⁻¹
R2 contrast – C2 [2, 21]: 64.1 ± 15.8%
R2 [2, 22]: 7.063 ± 1.128 s⁻¹
R2 contrast – C2 [2, 22]: 78.4 ± 20.3%
SMILES: O=C(NCc1ccc(Br)cc1)C1CC(O)CN1C(=O)CC(F)(F)F (centres unmarked) [Compound 19]
